Key:
[1] = molecular target: T1, IKZF3 (Homo sapiens, UniProt Q96SW2+Q9UKT9); test: Western-blot assay, substrate protein degradation in hPBMCs: IKZF3; format: cell-based; details: compounds at 50 nM and 500 nM, 24 hours
T1 construct: effects of the compounds of the present disclosure on the expression of target proteins in cells; endogenous in cells; host or cells: human PBMCs (hPBMCs)

[2] = molecular target: T2, IKZF1 (Homo sapiens, UniProt Q13422+Q96SW2); test: Western-blot assay, substrate protein degradation in hPBMCs: IKZF1; format: cell-based; details: compounds at 50 nM and 500 nM, 24 hours
T2 construct: effects of the compounds of the present disclosure on the expression of target proteins in cells; endogenous in cells; host or cells: human PBMCs (hPBMCs)
T2 sequence (Q13422 whole entry): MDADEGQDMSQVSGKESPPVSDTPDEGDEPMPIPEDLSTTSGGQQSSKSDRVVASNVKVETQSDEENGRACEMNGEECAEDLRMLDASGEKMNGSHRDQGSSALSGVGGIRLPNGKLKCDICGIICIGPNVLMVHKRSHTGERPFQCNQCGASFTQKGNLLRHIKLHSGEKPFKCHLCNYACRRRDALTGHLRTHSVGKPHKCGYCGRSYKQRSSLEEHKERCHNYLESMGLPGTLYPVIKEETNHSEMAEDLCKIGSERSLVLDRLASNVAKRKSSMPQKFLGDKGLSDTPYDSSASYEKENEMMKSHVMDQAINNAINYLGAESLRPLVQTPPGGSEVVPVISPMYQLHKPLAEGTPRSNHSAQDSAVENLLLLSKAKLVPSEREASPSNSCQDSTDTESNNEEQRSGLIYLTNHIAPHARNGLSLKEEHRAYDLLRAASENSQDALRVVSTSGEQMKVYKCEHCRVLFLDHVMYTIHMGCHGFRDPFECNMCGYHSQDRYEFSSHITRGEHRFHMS
T2 sequence (Q96SW2 whole entry): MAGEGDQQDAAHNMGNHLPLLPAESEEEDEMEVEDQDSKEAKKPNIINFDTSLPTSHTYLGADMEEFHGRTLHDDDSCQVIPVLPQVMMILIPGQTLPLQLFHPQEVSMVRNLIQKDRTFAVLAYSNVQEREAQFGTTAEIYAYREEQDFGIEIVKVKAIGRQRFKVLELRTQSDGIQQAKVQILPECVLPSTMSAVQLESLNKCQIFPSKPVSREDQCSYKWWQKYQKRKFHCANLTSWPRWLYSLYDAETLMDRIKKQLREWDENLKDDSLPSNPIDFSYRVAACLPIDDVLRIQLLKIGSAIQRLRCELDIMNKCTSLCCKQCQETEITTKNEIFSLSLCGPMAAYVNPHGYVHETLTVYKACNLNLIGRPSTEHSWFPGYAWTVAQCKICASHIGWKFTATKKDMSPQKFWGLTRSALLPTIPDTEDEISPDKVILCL
T2 sequence (Q16531 whole entry partner): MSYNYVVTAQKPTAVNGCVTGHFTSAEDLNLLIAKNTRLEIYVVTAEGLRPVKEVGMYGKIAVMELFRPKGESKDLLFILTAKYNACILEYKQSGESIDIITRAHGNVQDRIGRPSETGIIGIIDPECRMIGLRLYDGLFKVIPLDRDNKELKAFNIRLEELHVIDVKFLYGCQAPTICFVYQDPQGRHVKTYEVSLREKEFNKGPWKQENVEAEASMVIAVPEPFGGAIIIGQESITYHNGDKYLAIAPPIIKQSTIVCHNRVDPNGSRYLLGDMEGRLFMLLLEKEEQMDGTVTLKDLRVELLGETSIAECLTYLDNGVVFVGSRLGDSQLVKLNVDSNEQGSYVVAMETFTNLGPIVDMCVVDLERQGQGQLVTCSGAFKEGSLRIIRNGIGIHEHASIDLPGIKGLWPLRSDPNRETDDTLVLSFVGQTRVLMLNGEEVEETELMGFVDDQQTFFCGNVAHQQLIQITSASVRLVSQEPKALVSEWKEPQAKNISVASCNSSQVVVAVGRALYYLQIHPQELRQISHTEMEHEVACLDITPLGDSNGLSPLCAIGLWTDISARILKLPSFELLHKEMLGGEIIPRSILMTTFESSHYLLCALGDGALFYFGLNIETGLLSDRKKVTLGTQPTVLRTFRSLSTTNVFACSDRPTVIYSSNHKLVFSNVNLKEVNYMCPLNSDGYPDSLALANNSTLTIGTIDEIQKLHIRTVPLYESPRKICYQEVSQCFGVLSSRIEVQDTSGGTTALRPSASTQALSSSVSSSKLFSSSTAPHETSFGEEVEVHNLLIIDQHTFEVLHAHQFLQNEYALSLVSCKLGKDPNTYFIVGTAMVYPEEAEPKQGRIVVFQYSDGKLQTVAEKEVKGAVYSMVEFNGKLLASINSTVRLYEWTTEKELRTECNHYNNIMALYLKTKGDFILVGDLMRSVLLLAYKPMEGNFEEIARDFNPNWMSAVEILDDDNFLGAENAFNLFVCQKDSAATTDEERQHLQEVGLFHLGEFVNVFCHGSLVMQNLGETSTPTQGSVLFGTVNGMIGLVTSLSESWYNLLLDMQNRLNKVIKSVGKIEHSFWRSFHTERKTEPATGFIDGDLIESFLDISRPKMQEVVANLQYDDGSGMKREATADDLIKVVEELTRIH

[3] = molecular target: T3, IKZF2 (Homo sapiens, UniProt Q96SW2+Q9UKS7); test: Western-blot assay, substrate protein degradation in hPBMCs: IKZF2; format: cell-based; details: compounds at 50 nM and 500 nM, 24 hours
T3 construct: effects of the compounds of the present disclosure on the expression of target proteins in cells; endogenous in cells; host or cells: human PBMCs (hPBMCs)
T3 sequence (Q9UKS7 whole entry): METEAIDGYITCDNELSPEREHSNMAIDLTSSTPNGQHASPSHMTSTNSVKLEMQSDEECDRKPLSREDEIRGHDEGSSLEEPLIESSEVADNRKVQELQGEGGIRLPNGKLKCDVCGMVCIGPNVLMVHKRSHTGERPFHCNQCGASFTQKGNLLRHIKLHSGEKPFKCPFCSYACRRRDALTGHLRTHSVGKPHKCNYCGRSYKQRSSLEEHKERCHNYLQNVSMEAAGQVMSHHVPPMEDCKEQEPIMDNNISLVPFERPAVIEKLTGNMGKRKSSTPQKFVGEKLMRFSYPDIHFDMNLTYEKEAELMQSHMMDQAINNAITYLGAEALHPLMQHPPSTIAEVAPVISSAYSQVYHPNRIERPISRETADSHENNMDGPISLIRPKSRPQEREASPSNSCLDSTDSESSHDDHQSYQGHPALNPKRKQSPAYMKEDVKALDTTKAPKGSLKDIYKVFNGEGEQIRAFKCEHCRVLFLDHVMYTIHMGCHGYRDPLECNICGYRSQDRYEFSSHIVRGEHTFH
T3 sequence (Q96SW2 whole entry): as the sequence (Q96SW2 whole entry) above
T3 sequence (Q16531 whole entry partner): as the sequence (Q16531 whole entry partner) above

[4] = system: MM.1S; test: Cell viability assay (CellTiter-Meiluncell Luminescent), tumor cell proliferation, MM.1S; details: Homo sapiens, MM1.S, 96 h, read-out: inhibitory activity (IC50, nM) against tumor cells proliferation, MM.1S
[5] = molecular target: T4, WEE1 (Homo sapiens, UniProt P30291+Q96SW2); test: Western-blot assay, substrate protein degradation in hPBMCs: WEE1; format: cell-based; details: compounds at 50 nM and 500 nM, 24 hours
T4 construct: effects of the compounds of the present disclosure on the expression of target proteins in cells; endogenous in cells; host or cells: human PBMCs (hPBMCs)

[6] = molecular target: T5, CK1α (Homo sapiens, UniProt P48729+Q96SW2); test: Western-blot assay, substrate protein degradation in hPBMCs: CK1α; format: cell-based; details: compounds at 50 nM and 500 nM, 24 hours
T5 construct: effects of the compounds of the present disclosure on the expression of target proteins in cells; endogenous in cells; host or cells: human PBMCs (hPBMCs)
T5 sequence (P48729 whole entry): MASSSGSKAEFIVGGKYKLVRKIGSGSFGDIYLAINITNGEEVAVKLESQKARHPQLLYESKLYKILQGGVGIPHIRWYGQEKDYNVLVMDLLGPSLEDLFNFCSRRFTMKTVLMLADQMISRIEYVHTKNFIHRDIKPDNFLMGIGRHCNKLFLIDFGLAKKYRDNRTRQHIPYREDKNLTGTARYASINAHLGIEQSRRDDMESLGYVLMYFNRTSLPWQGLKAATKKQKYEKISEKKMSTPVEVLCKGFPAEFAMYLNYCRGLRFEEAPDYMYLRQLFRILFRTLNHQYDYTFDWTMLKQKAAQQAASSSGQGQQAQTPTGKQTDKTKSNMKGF
T5 sequence (Q96SW2 whole entry): as the sequence (Q96SW2 whole entry) above
T5 sequence (Q16531 whole entry partner): as the sequence (Q16531 whole entry partner) above

[7] = molecular target: T6, GSPT1 (Homo sapiens, UniProt P15170+Q96SW2); test: Western-blot assay, substrate protein degradation in hPBMCs: GSPT1; format: cell-based; details: compounds at 50 nM and 500 nM, 24 hours
T6 construct: effects of the compounds of the present disclosure on the expression of target proteins in cells; endogenous in cells; host or cells: human PBMCs (hPBMCs)
T6 sequence (P15170 whole entry): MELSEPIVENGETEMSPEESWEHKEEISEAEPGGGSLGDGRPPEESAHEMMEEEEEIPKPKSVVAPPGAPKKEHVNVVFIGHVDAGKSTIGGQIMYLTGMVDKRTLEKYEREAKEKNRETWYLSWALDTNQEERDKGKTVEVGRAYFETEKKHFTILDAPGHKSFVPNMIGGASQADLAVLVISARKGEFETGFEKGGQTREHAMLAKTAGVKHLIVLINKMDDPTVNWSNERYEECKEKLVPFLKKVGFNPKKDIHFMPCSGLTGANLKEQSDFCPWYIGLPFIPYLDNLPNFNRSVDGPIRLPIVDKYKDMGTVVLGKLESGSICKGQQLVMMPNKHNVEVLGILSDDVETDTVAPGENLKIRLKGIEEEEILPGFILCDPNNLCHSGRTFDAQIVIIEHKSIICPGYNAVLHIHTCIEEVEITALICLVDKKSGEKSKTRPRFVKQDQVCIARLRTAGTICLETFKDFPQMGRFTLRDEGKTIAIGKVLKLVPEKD
T6 sequence (Q96SW2 whole entry): as the sequence (Q96SW2 whole entry) above
T6 sequence (Q16531 whole entry partner): as the sequence (Q16531 whole entry partner) above

T1 sequence (Q9UKT9 whole entry): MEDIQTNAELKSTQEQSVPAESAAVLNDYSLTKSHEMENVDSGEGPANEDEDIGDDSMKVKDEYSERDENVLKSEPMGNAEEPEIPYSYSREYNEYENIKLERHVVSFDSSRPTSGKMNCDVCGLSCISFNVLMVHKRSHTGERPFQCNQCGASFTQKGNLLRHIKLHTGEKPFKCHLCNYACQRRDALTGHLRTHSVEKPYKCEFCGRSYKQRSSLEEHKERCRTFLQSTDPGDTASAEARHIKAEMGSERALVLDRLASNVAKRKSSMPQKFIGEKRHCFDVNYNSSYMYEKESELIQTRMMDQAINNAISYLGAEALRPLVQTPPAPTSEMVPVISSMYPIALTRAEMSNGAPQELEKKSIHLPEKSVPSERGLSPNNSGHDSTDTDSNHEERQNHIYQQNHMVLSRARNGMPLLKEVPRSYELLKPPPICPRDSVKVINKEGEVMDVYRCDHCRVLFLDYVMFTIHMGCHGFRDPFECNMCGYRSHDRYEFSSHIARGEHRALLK
T1 sequence (Q96SW2 whole entry): as the sequence (Q96SW2 whole entry) above
T1 sequence (Q16531 whole entry partner): as the sequence (Q16531 whole entry partner) above

SMILES | IKZF3 substrate protein remaining % [1] | IKZF1 substrate protein remaining % [2] | IKZF2 substrate protein remaining % [3] | IC50 [4] | WEE1 substrate protein remaining % [5] | CK1α substrate protein remaining % [6] | GSPT1 substrate protein remaining % [7]
O=C1CCN(N2Cc3cc(CN4CCN(C(c5ccc(F)cc5)c5ccc(F)cc5)CC4)ccc3C2=O)C(=O)N1 [GT-04894, 1-(5-((4-(bis(4-fluorophenyl)methyl)piperazin-1-yl)methyl)-1-oxoisoindolin-2-yl)dihydropyrimidine-2,4(1H,3H)-dione] | B ("B" is defined as 80%< substrate protein remaining %≤ 100%) | A ("A" is defined as 0% ≤ substrate protein remaining % ≤ 80%) | A ("A" is defined as 0% ≤ substrate protein remaining % ≤ 80%) | 500 to 1000 nM | A ("A" is defined as 0% ≤ substrate protein remaining % ≤ 80%) | B ("B" is defined as 80%< substrate protein remaining %≤ 100%) | A ("A" is defined as 0% ≤ substrate protein remaining % ≤ 80%)
CC1(C)CCC(CN2CCN(Cc3ccc4c(c3)CN(N3CCC(=O)NC3=O)C4=O)CC2)=C(c2ccc(Cl)cc2)C1 [GT-04944, 1-(5-((4-((4'-chloro-5,5-dimethyl-3,4,5,6-tetrahydro-[1,1'-biphenyl]-2-yl)methyl)piperazin-1-yl)methyl)-1-oxoisoindolin-2-yl)dihydropyrimidine-2,4(1H,3H)-dione] | B ("B" is defined as 80%< substrate protein remaining %≤ 100%) | B ("B" is defined as 80%< substrate protein remaining %≤ 100%) | B ("B" is defined as 80%< substrate protein remaining %≤ 100%) | 500 to 1000 nM | B ("B" is defined as 80%< substrate protein remaining %≤ 100%) | B ("B" is defined as 80%< substrate protein remaining %≤ 100%) | A ("A" is defined as 0% ≤ substrate protein remaining % ≤ 80%)
O=C1CCN(N2Cc3cc(CN4CCN(c5cccc(Cl)n5)CC4)ccc3C2=O)C(=O)N1 [GT-05126, 1-(5-((4-(6-chloropyridin-2-yl)piperazin-1-yl)methyl)-1-oxoisoindolin-2-yl)dihydropyrimidine-2,4(1H,3H)-dione] | A ("A" is defined as 0% ≤ substrate protein remaining % ≤ 80%) | A ("A" is defined as 0% ≤ substrate protein remaining % ≤ 80%) | A ("A" is defined as 0% ≤ substrate protein remaining % ≤ 80%) | 300 to 500 nM | A ("A" is defined as 0% ≤ substrate protein remaining % ≤ 80%) | A ("A" is defined as 0% ≤ substrate protein remaining % ≤ 80%) | A ("A" is defined as 0% ≤ substrate protein remaining % ≤ 80%)
O=C1CCN(N2Cc3cc(CN4CCN(c5ccc(Cl)cn5)CC4)ccc3C2=O)C(=O)N1 [GT-05127, 1-(5-((4-(5-chloropyridin-2-yl)piperazin-1-yl)methyl)-1-oxoisoindolin-2-yl)dihydropyrimidine-2,4(1H,3H)-dione] | A ("A" is defined as 0% ≤ substrate protein remaining % ≤ 80%) | A ("A" is defined as 0% ≤ substrate protein remaining % ≤ 80%) | B ("B" is defined as 80%< substrate protein remaining %≤ 100%) | 500 to 1000 nM | A ("A" is defined as 0% ≤ substrate protein remaining % ≤ 80%) | A ("A" is defined as 0% ≤ substrate protein remaining % ≤ 80%) | A ("A" is defined as 0% ≤ substrate protein remaining % ≤ 80%)
O=C1CCN(N2Cc3cc(CN4C[C@@H]5C[C@H]4CN5c4cccc(Cl)c4Cl)ccc3C2=O)C(=O)N1 [GT-05163, 1-(5-(((1S,4S)-5-(2,3-dichlorophenyl)-2,5-diazabicyclo[2.2.1]heptan-2-yl)methyl)-1-oxoisoindolin-2-yl)dihydropyrimidine-2,4(1H,3H)-dione] | A ("A" is defined as 0% ≤ substrate protein remaining % ≤ 80%) | A ("A" is defined as 0% ≤ substrate protein remaining % ≤ 80%) | A ("A" is defined as 0% ≤ substrate protein remaining % ≤ 80%) | 500 to 1000 nM | B ("B" is defined as 80%< substrate protein remaining %≤ 100%) | B ("B" is defined as 80%< substrate protein remaining %≤ 100%) | A ("A" is defined as 0% ≤ substrate protein remaining % ≤ 80%)
O=C1CCN(N2Cc3cc(CN4CCC(c5c[nH]c6cc(F)ccc56)CC4)ccc3C2=O)C(=O)N1 [GT-05164, 1-(5-((4-(6-fluoro-1H-indol-3-yl)piperidin-1-yl)methyl)-1-oxoisoindolin-2-yl)dihydropyrimidine-2,4(1H,3H)-dione] | B ("B" is defined as 80%< substrate protein remaining %≤ 100%) | A ("A" is defined as 0% ≤ substrate protein remaining % ≤ 80%) | A ("A" is defined as 0% ≤ substrate protein remaining % ≤ 80%) | 100 to 300 nM | B ("B" is defined as 80%< substrate protein remaining %≤ 100%) | B ("B" is defined as 80%< substrate protein remaining %≤ 100%) | A ("A" is defined as 0% ≤ substrate protein remaining % ≤ 80%)
O=C1CCN(N2Cc3cc(CN4CCC(N5CCc6cc(F)ccc65)CC4)ccc3C2=O)C(=O)N1 [GT-05165, 1-(5-((4-(5-fluoroindolin-1-yl)piperidin-1-yl)methyl)-1-oxoisoindolin-2-yl)dihydropyrimidine-2,4(1H,3H)-dione] | B ("B" is defined as 80%< substrate protein remaining %≤ 100%) | B ("B" is defined as 80%< substrate protein remaining %≤ 100%) | A ("A" is defined as 0% ≤ substrate protein remaining % ≤ 80%) | 500 to 1000 nM | B ("B" is defined as 80%< substrate protein remaining %≤ 100%) | B ("B" is defined as 80%< substrate protein remaining %≤ 100%) | A ("A" is defined as 0% ≤ substrate protein remaining % ≤ 80%)
O=C1CCN(N2Cc3cc(CN4CC=C(c5ccnc6cc(F)ccc56)CC4)ccc3C2=O)C(=O)N1 [GT-05166, 1-(5-((4-(7-fluoroquinolin-4-yl)-3,6-dihydropyridin-1(2H)-yl)methyl)-1-oxoisoindolin-2-yl)dihydropyrimidine-2,4(1H,3H)-dione] | A ("A" is defined as 0% ≤ substrate protein remaining % ≤ 80%) | A ("A" is defined as 0% ≤ substrate protein remaining % ≤ 80%) | A ("A" is defined as 0% ≤ substrate protein remaining % ≤ 80%) | 100 to 300 nM | A ("A" is defined as 0% ≤ substrate protein remaining % ≤ 80%) | B ("B" is defined as 80%< substrate protein remaining %≤ 100%) | A ("A" is defined as 0% ≤ substrate protein remaining % ≤ 80%)
Cn1cc(C2=CCN(Cc3ccc4c(c3)CN(N3CCC(=O)NC3=O)C4=O)CC2)c2ccc(F)cc21 [GT-05167, 1-(5-((4-(6-fluoro-1-methyl-1H-indol-3-yl)-3,6-dihydropyridin-1(2H)-yl)methyl)-1-oxoisoindolin-2-yl)dihydropyrimidine-2,4(1H,3H)-dione] | A ("A" is defined as 0% ≤ substrate protein remaining % ≤ 80%) | A ("A" is defined as 0% ≤ substrate protein remaining % ≤ 80%) | A ("A" is defined as 0% ≤ substrate protein remaining % ≤ 80%) | 10 to 50 nM | A ("A" is defined as 0% ≤ substrate protein remaining % ≤ 80%) | B ("B" is defined as 80%< substrate protein remaining %≤ 100%) | A ("A" is defined as 0% ≤ substrate protein remaining % ≤ 80%)
O=C1CCN(N2Cc3cc(CN4CC(=C5CCOc6cc(F)ccc65)C4)ccc3C2=O)C(=O)N1 [GT-05168, 1-(5-((3-(7-fluorochroman-4-ylidene)azetidin-1-yl)methyl)-1-oxoisoindolin-2-yl)dihydropyrimidine-2,4(1H,3H)-dione] | A ("A" is defined as 0% ≤ substrate protein remaining % ≤ 80%) | B ("B" is defined as 80%< substrate protein remaining %≤ 100%) | B ("B" is defined as 80%< substrate protein remaining %≤ 100%) | 100 to 300 nM | B ("B" is defined as 80%< substrate protein remaining %≤ 100%) | B ("B" is defined as 80%< substrate protein remaining %≤ 100%) | A ("A" is defined as 0% ≤ substrate protein remaining % ≤ 80%)

— patent EP4722207A1, “OXOISOINDOLINYL-SUBSTITUTED TETRAHYDROPYRIMIDINEDIONE DERIVATIVE AND USE THEREOF” (Gluetacs Therapeutics (Shanghai) Co., Ltd., priority 2023, dated 2024)
